Columns and labels:
[1] = biological target: T1, TP0037 (TpD-LDH; rTP0037) (Treponema pallidum, UniProt O83080); test: colorimetric NADH-formation kit assay (A575/A605); type: biochemical; settings: co-substrate NAD+, 37°C, 30 min
T1 construct: gene ldhD; full-length, residues 1-331, in pProEX-HTb (vector-derived tag); monomer 39,190 g/mol, homodimer in solution

[2] = biological target: the molecule itself; test: static light scattering; Dynapro Nanostar, 25°C, storage buffer (20 mM HEPES pH 7.5, 100 mM NaCl, 2 mM BOG), 1.54 mg/ml, three technical replicates; DLS monitored simultaneously

## C[C@@H](O)C(=O)O [D-lactate]
[1]
  colorimetric NADH-formation kit assay (A575/A605): monitor the amount of NADH formation in the presence of NAD^+, D-lactate, and the enzyme

## C[C@H](O)C(=O)O [L-lactate]
[1]; very weak substrate
  colorimetric NADH-formation kit assay (A575/A605): only about one-thousandth of the activity was observed when using L-lactate as the substrate

B1: TP0037, D-lactate dehydrogenase of Treponema pallidum (enzyme, UniProt O83080 1-331, looked up)
chain: MRCVVFNLREEEAPYVEKWKQSHPGVVVDTYEEPLTAKNKELLKGYEGLVVMQFLAMEDEVYDYMGACKLKVLSTRTAGFDMYNATLLKKHGIRLTNVPSYSPNAIGEYALAAALQLTRHAREIETFVRKRDFRWQKPILSKELRCSRVGILGTGRIGQAAARLFKGVGAQVVGFDPYPNDAAKEWLTYVSMDELLSTSDVISLHMPATKDSHHLINAKTIAQMKDGVYLVNTARGAVIDSQALLDSLDKGKIAGAALDAYEFEGPYIPKDNGNNPITDTVYARLVAHERIIYTPHIAFYTETAIENMVFNSLDACTTVLRGEPCAAEIKL
notes: TP0037 (D-lactate dehydrogenase), Treponema pallidum, amino acid residues 1 to 331, amplified from genomic DNA; called full-length in the results; also called rTP0037; TpD-LDH; source: E. coli BL21(DE3), purified to apparent homogeneity
[2]
  stoichiometry N: 2
